Assay results reported in paper PMC10820135, “Pharmacokinetic, Tissue Distribution, Metabolite, and Toxicity Evaluation of the Matrine Derivative, (6aS, 10S, 11aR, 11bR, 11cS)-10-Methylaminododecahydro-3a, 7a-Diaza-benzo (de) Anthracene-8-thione” (Molecules, 2024).
Like-named read-outs stand apart in the source and are kept apart here.

Assay: Plasma pharmacokinetics of MASM in rats, non-compartmental analysis
Assay type: in vivo, Sprague-Dawley rats
Settings: rat
Procedure: UHPLC analysis was performed using a Thermo Accela AS system, employing an ACQUITY UPLC®BEH C18 (Waters Corporation, Wexfords, Ireland) (1.7 µm, 2.1 × 100 mm) column and a binary solvent system consisting of water containing 0.1% formic acid as mobile phase A and acetonitrile as mobile phase B. For pharmacokinetic evaluation, the gradient elution was set as follows: 97% A from 0 to 2 min, 97–70% A from 2 to 3 min, 70–20% A from 3 to 3.5 min, 20% A from 3.5 to 3.6 min, 20–97% A from 3.6 to 3.7 min, and 97% A from 3.7 to 5 min. For the metabolic test, the gradient elution in full scan mode was set as follows: 97% A from 0 to 2 min, 97–70% A from 2 to 4 min, 70–20% A from 4 to 6 min, 20% A from 6 to 7 min, 20–97% A from 7 to 8 min, and 97% A from 8 to 10 min. The flow rate was 0.2 mL/min, with a temperature of 40 °C maintained and an injection volume of 5 μL. The QQQ-MS/MS analysis was conducted using a Thermo TSQ QUANTUM ACCESS MAX system equipped with an electrospray ionization (ESI) source. The spray voltages were set at 4.0 kV and 2.5 kV for positive and negative ion modes, respectively; capillary and vaporizer temperatures were 320 °C and 350 °C, respectively; sheath and aux gas pressures were 35 and 10 psi, respectively.
A precisely measured MASM sample weighing 400 mg was dissolved in normal saline to create aqueous solutions with concentrations of 8.0, 6.0, and 1.5 mg/mL for intraperitoneal, oral, and intravenous administrations at doses of 80 mg/kg, 60 mg/kg, and 15 mg/kg, respectively.
Seventy Sprague-Dawley rats were fasted overnight before dosing, with free access to water. Subsequently, the rats were randomly and equally divided into 7 groups: the control groups received 3 different routes of administration: intravenous, intraperitoneal, and intragastric (NS, saline 1 mL/100 g); MASM intraperitoneal group (A, i.p. 80 mg/kg), MASM intragastrical group (B, i.g. 60 mg/kg), MASM intravenous group (C, i.v. 15 mg/kg), and DMASM intragastrical group (D, i.g. 60 mg/kg). It is important to note that the recommended clinical dose of matrine injection is 0.15 g, which is equivalent to a dosage of 15 mg/kg in rats. MASM was administered via tail vein injection at a dosage of 1 mL/100 g for intravenous dosing, while for intraperitoneal dosing, MASM was injected at the lower-right side of the abdomen of rats. Blood samples (approximately 0.3 mL) were collected from the eye socket at specific time intervals (0.083, 0.167, 0.25, 0.5, 1, 1.5, 2, 4, 6, 9, 12, and 24 h) after administration for each group. These samples were then placed in centrifuge tubes containing heparin sodium, subjected to centrifugation at 4000 rpm for 15 min, and the resulting supernatant was collected and stored at −80 °C until further analysis. During the analysis of the plasma sample, protein precipitation was carried out using a plasma-to-acetonitrile ratio of 1:3, and 5μL of the resulting supernatant was injected. The developed UHPLC-QQQ-MS/MS analysis method underwent a series of validations, and the peak area of the plasma sample was obtained employing the Xcalibur 2.2 data-processing system. The concentrations of MASM in plasma were then determined using linear regression equations. Subsequently, the in vivo pharmacokinetic parameters were calculated using the non-compartment model in DAS 3.0 software. Blood concentration–time curves were generated using Prism 8.0 (GraphPad Software Inc., San Diego, CA, USA).

[1] = Sprague-Dawley, plasma, iv, i.v. 15 mg/kg, n = 6, mean ± SD
[2] = i.g. 60 mg/kg, n = 6, mean ± SD
[3] = i.p. 80 mg/kg, n = 6, mean ± SD

CNC1CC(=S)N2CC3CCCN4CCCC(C34)C2C1 [MASM, (6aS, 10S, 11aR, 11bR, 11cS)-10-methylaminododecahydro-3a, 7a-diaza-benzo (de) anthracene-8-thione]
bioavailability (Sprague-Dawley, plasma, intraperitoneal, i.p. 80 mg/kg vs i.v. 15 mg/kg, n = 6, mean ± SD, read-out: F(%) bioavailability): 54 ± 19.4% | Cmax (Sprague-Dawley, plasma, ip, i.p. 80 mg/kg, n = 6, mean ± SD): 2210 ± 930 ng/mL | half-life (Sprague-Dawley, plasma, ip, i.p. 80 mg/kg, n = 6, mean ± SD, read-out: t 1/2 (elimination half-life) (converted)): 9.97 ± 3.95 h | Cmax [1]: 780 ± 540 ng/mL | clearance [1]: 71.7 mL/min/kg | Vd (Sprague-Dawley, plasma, iv, i.v. 15 mg/kg, n = 6, mean ± SD, read-out: V d (apparent volume of distribution)): 36.6 ± 17.8 L/kg | half-life (Sprague-Dawley, plasma, iv, i.v. 15 mg/kg, n = 6, mean ± SD, read-out: t 1/2 (elimination half-life) (converted)): 10.5 ± 8.84 h | bioavailability (Sprague-Dawley, plasma, oral, i.g. 60 mg/kg vs i.v. 15 mg/kg, n = 6, mean ± SD, read-out: F(%) absolute intragastrical bioavailability): 44.5 ± 12.3% | half-life (Sprague-Dawley, plasma, other: intravenous, intravenous, intraperitoneal or intragastric, read-out: t1/2 regardless of the route of administration (converted)): ~10 h | Cmax (Sprague-Dawley, plasma, po, i.g. 60 mg/kg, n = 6, mean ± SD): 1380 ± 570 ng/mL | half-life (Sprague-Dawley, plasma, po, i.g. 60 mg/kg, n = 6, mean ± SD, read-out: t 1/2 (elimination half-life) (converted)): 10.2 ± 4.95 h | Tmax (Sprague-Dawley, plasma, ip, 80 mg/kg, i.p. 80 mg/kg, n = 6, mean ± SD): 0.21 ± 0.04 h | AUC(0-t) (Sprague-Dawley, plasma, ip, 80 mg/kg, i.p. 80 mg/kg, n = 6, mean ± SD, read-out: AUC(0–24)): 15600 ± 5610 ng·h/mL | AUC(0-t) (Sprague-Dawley, plasma, ip, 80 mg/kg, i.p. 80 mg/kg, n = 6, mean ± SD, read-out: AUC(0–t)): 12400 ± 5320 ng·h/mL | Tmax (Sprague-Dawley, plasma, iv, 15 mg/kg, i.v. 15 mg/kg, n = 6, mean ± SD): 0.17 ± 0.17 h | AUC(0-t) (Sprague-Dawley, plasma, iv, 15 mg/kg, i.v. 15 mg/kg, n = 6, mean ± SD, read-out: AUC(0–24)): 5410 ± 3220 ng·h/mL | AUC(0-t) (Sprague-Dawley, plasma, iv, 15 mg/kg, i.v. 15 mg/kg, n = 6, mean ± SD, read-out: AUC(0–t)): 4280 ± 2400 ng·h/mL | Tmax (Sprague-Dawley, plasma, po, 60 mg/kg, i.g. 60 mg/kg, n = 6, mean ± SD): 1.3 h | AUC(0-t) (Sprague-Dawley, plasma, po, 60 mg/kg, i.g. 60 mg/kg, n = 6, mean ± SD, read-out: AUC(0–24)): 13700 ± 7550 ng·h/mL | AUC(0-t) (Sprague-Dawley, plasma, po, 60 mg/kg, i.g. 60 mg/kg, n = 6, mean ± SD, read-out: AUC(0–t)): 10900 ± 4780 ng·h/mL | CL [2]: 93.3 ± 49 mL/min/kg | V d (apparent volume of distribution) [2]: 69.43 ± 22.58 L/kg | CL [3]: 95.5 ± 33.8 mL/min/kg | V d (apparent volume of distribution) [3]: 84.74 ± 57.17 L/kg
